# From patent US10328128B2, “Treatment of infection by human enterovirus D68” (priority 2014, dated 2019)
# Assays:
# Assay type in all cases: cell-based, Human enterovirus D68
# [1] = system: EV-D68 strain USA-MO/18947; assay: CPE inhibition assay in RD cells; conditions: Enterovirus D, EVD68, 120 h; RD cells, 100 CCID50 virus, 33° C., five days, strain USA-MO/18947; read-out: Mean EC50 ± SD
# [2] = system: EV-D68 strain USA-MO/18949; assay: CPE inhibition assay in RD cells; conditions: Enterovirus D, EVD68, 120 h; RD cells, 100 CCID50 virus, 33° C., five days, strain USA-MO/18949; read-out: Mean EC50 ± SD
# [3] = system: EV-D68 strain USA-IL/18956; assay: CPE inhibition assay in RD cells; conditions: Enterovirus D, EVD68, 120 h; RD cells, 100 CCID50 virus, 33° C., five days, strain USA-IL/18956; read-out: Mean EC50 ± SD
# [4] = system: EV-D68 1962 prototype strain (Fermon); assay: CPE inhibition assay in RD cells; conditions: Enterovirus D, EVD68, 120 h; RD cells, 100 CCID50 virus, 33° C., five days, strain Fermon; read-out: Mean EC50 ± SD
# four EV-D68 strains [5] = assay: microbe, parasite or virus in culture; conditions: RD cells
# [6] = system: EV-D68 strain USA-MO/18947; assay: CPE inhibition assay repeated in HeLa H1 cells; conditions: Enterovirus D, EVD68
# [7] = system: EV-D68 strain USA-MO/18949; assay: CPE inhibition assay repeated in HeLa H1 cells; conditions: Enterovirus D, EVD68
# [8] = system: EV-D68 strain USA-IL/18956; assay: CPE inhibition assay repeated in HeLa H1 cells; conditions: Enterovirus D, EVD68
# EV-D68 strain Fermon = assay: CPE inhibition assay repeated in HeLa H1 cells; conditions: Enterovirus D, EVD68
# four EV-D68 strains [9] = assay: CPE inhibition assay in HeLa H1 cells, text summaries over the strains; conditions: Enterovirus D, EVD68, all four strains, read-out: EC50 values, range over all four strains in HeLa H1 cells
# EV-D68 Fermon strain = assay: CPE inhibition assay over a range of virus doses; conditions: Enterovirus D, EVD68; 100-fold virus dose range; strain not given; read-out: EC50 variation over a range of virus doses
# Experimental: Antiviral activity was assessed in a homogeneous cell-based assay that measured inhibition of viral cytopathic effect in human rhabdomyosarcoma cells (RD; ATCC CCL-136). The viruses included three representative EV-D68 strains from the 2014 outbreak (USA-MO/18947, USA-MO/18949, USA-IL/18956) (Brown et al. 2014. Seven Strains of Enterovirus D68 Detected in the United States during the 2014 Severe Respiratory Disease Outbreak. Genome Announc 2:e01201-01214), as well as the 1962 prototype strain (Fermon) (Schieble et al. 1967. A probable new human picornavirus associated with respiratory diseases. Am J Epidemiol 85:297-310). For the CPE inhibition assay, half-log10 dilutions of drug compound (10 μM to 0.001 μM) were combined with 100 CCID50 (50% cell culture infectious dose) of virus and added to monolayers of RD cells (5000 cells per well) in 384-well, white, flat-bottom microplates. Plates were incubated at 33° C. and 5% CO2 for five days, and cell viability was assessed using ATPLite® (Perkin Elmer, Waltham, Mass.) by adding 15 μL of cell lysis buffer and then 15 μL of substrate solution, following the manufacturer's recommendations.
# In both studies, the methods were somewhat different from our approach. […] For the other compounds tested, similar EC50 values were observed across this same dose range. […]
smiles,measurement,setting,value
"Cc1cc(CCCOc2c(C)cc(-c3noc(C(F)(F)F)n3)cc2C)on1 [Pleconaril, pleconaril]",EC50,[1],4440 ± 550 nM
same,EC50,[2],6090 ± 260 nM
same,EC50,[3],6110 ± 1050 nM
same,EC50,[4],380 ± 10 nM
same,concentrations at which activity against the 2014 strains was detected,four EV-D68 strains [5]; 2014 strains,greater than 4 μM
same,EC50 against the 2014 strains relative to the Fermon strain,four EV-D68 strains [5]; higher against 2014 strains,about 10 fold
same,EC50,[6],131 nM
same,EC50,[7],358 nM
same,EC50,[8],321 nM
same,EC50,EV-D68 strain Fermon,360 nM
same,EC50,four EV-D68 strains [9],130 to 360 nM
same,EC50,EV-D68 Fermon strain,300 to 500 nM
